Reference: patent US6821995B1, “Method of treating batten disease” (priority 1999, dated 2004)
Where “and” joins values, the source holds several entries; their conditions need not be identical. Equal entries are not always repeated.

Tests used:
[1] = tested on: cells derived from late infantile Batten disease (LINCL or CLN2 deficient); test: JC-1 mitochondrial membrane potential assay of etoposide-induced apoptosis, LINCL cells; format: cell-based, human; details: for percentage of cells showing J-aggregates: two patient cell lines, JC-1 stain
Method: (§1) Batten disease-derived cell lines were tested for their susceptibility to apoptosis induced by etoposide and whether flupirtine had any protective effect against apoptosis. Cells derived from infantile Batten disease (INCL or CLN1 deficient), cells derived from late infantile Batten disease (LINCL or CLN2 deficient), and cells derived from juvenile Batten disease (JNCL or CLN3 deficient) received an 18 hour incubation in 30 μM etoposide with and without a pre-treatment with 20 μM flupirtine. As a control, cells were also left untreated. Cells were then stained with JC-1 fluorescent stain, which is a mitochondrial membrane potential-sensitive dye. When cells are alive, the mitochondrial potential is maintained and the mitochondria appear green. At the commitment point of apoptosis, proapoptotic agents like etopside cause a drop in mitochondrial membrane potential and the mitochondria appear yellow-red due to the formation of J-aggregates.
(§2) Cell counts were conducted for to determine the percentage of cells showing J-aggregates (TABLE 1).
(§3) The numbers of cells showing J-aggregates indicates the number of cells that are apoptosis-ready but are still viable.

[2] = tested on: cells derived from infantile Batten disease (INCL or CLN1 deficient); test: JC-1 mitochondrial membrane potential assay of etoposide-induced apoptosis, INCL cells; format: cell-based, human; details: for percentage of cells showing J-aggregates: two patient cell lines, JC-1 stain
Method: as §1, §2, §3

[3] = tested on: cells derived from juvenile Batten disease (JNCL or CLN3 deficient); test: JC-1 mitochondrial membrane potential assay of etoposide-induced apoptosis, JNCL cells; format: cell-based, human
Method: as §1, §2, §3

[4] = tested on: Costa Rican Batten disease-derived fibroblasts (CLN6 deficient); test: Protection against etoposide-induced apoptosis, Costa Rican Batten disease cells; format: cell-based, human; details: pretreatment with flupirtine (FIG. 4)
Method: Graph represents number of living cells after treatments indicated.
Cells derived from Costa Rican Batten disease (CLN6 deficient) were also tested for their response to etoposide. The CLN6 gene remains uncharacterized, though linked to chromosome 15.

[5] = tested on: hNT neurons (human post-mitotic, fully-differentiated neurons); test: Etoposide-induced apoptosis in differentiated hNT neurons; format: cell-based; details: pre-treatment with 10 μM flupirtine, 20 μM etoposide 18 hour (FIG. 5)
Method: Cells were visualized by fluorescent microscopy.
Finally, human post-mitotic neuronal cells were tested for thier response to flupirtine and etoposide-induced apoptosis. NT2 cells were treated with retinoic acid, then mitotic inhibitors for 6 weeks to become hNT neurons that were fully differentiated. Next, the hNT neurons received an 18 hour incubation in 20 μM etoposide with and without a pre-treatment with 10 μM flupirtine.

[6] = tested on: retinal pigment epithelial cells and neuronal cells in culture; details: cited from earlier work
stroke in rats = details: rats pretreated with flupirtine; cited from earlier work
[7] = adults and children, chronically for over 12 months; cited from earlier work
[8] = 30 μM etoposide alone, 18 hour incubation
[9] = pre-treatment with 20 μM flupirtine, then 30 μM etoposide 18 hour

## COc1cc([C@@H]2c3cc4c(cc3[C@@H](O[C@@H]3O[C@@H]5CO[C@@H](C)O[C@H]5[C@H](O)[C@H]3O)[C@H]3COC(=O)[C@H]23)OCO4)cc(OC)c1O [Etoposide]
[1]; etoposide alone (FIG. 3B)
  yellow-red J-aggregates seen by fluorescent microscopy: many yellow-red aggregates
[1]; [8]
  percentage of cells showing J-aggregates: 100% and 96%
[2]; etoposide alone (FIG. 3A)
  yellow-red J-aggregates seen by fluorescent microscopy: many yellow-red aggregates
[2]; [8]
  percentage of cells showing J-aggregates: 61% and 51%
[3]; etoposide alone (FIG. 3C)
  yellow-red J-aggregates seen by fluorescent microscopy: many yellow-red aggregates
[3]; two patient cell lines, 30 μM etoposide alone, 18 hour incubation, JC-1 stain
  percentage of cells showing J-aggregates: 58.4% and 64%

## CCOC(=O)Nc1ccc(NCc2ccc(F)cc2)nc1N [Flupirtine, 2-amino-3-ethoxycarbonylamino-6-(p-fluorobenzylamino)-pyridine]
[1]; J-aggregate counts, etoposide vs etoposide + flupirtine
  protection afforded by Flupirtine: almost complete
[1]; flupirtine pretreated, then etoposide (FIG. 3B)
  yellow-red J-aggregates seen by fluorescent microscopy: no aggregates
[1]; [9]
  percentage of cells showing J-aggregates: 0% and 1.8%
[2]; flupirtine pretreated, then etoposide (FIG. 3A)
  yellow-red J-aggregates seen by fluorescent microscopy: no aggregates
[2]; [9]
  percentage of cells showing J-aggregates: 6.7% and 10.8%
[3]; flupirtine pretreated, then etoposide (FIG. 3C)
  yellow-red J-aggregates seen by fluorescent microscopy: no aggregates
[4]
  protection from etoposide-induced apoptosis (number of living cells): protected from etoposide-induced apoptosis
[5]
  effect on etoposide-induced apoptosis: completely blocked etoposide-induced apoptosis
[6]
  effect on apoptosis: counteract apoptosis
Stroke in rats
  area of ischemia induced by stroke: reduce the area of ischemia
[7]
  tolerability in chronic use: without undue side effect or addiction
